From patent US6685617B1, “Inhibitors of α4β1 mediated cell adhesion” (Pharmacia & Upjohn Company, priority 1998, dated 2004)

Assays:
[1] = system: VLA-4 integrin-dependent eosinophil infiltration; assay: Dextran pleurisy model (intrapleural dextran, pleural leukocyte infiltration); format: in vivo, C57BL/6 mice; conditions: dose 50 × 2 iv; mouse, 4 h after intrapleural dextran
Protocol: Animals, Housing and Viral Testing:
C57BL/6 mice (Jackson, Bar Harbor, Me.), 6-8 weeks old, weighing 20-25 g were used throughout. All mice were acclimated for at least 7-14 days after arrival and maintained under controlled temperature (20-22° C.) and a 12 hr daily light cycle (6.00 A.M.-6.00 P.M.). Mice were housed in laminar flow racks and checked biweekly for viral infections (mouse hepatitis virus, minute virus of mice, rodent orphan parvovirus, Sendai) with kits obtained from Oreganon Teknika (Durham, N.C.) using established enzyme-linked immunoabsorbent assays. Mice testing positive for any of the above were omitted from the study. […]
Quantitation of Pleural Inflammatory Leukocyte Responses: […]
The pleural cavities of mice receiving either no intrapleural injection, or saline were washed and the cells counted in the same way to estimate baseline or saline-induced pleural leukocyte counts respectively. […]
The following compounds were tested for their inhibitory effects on dextran-induced leukocyte infiltration: Examples 3, 8, 9, 10, 12, 16, 37, 62, 66, 67, 99, 100, 111, 113, 115, 127, 131, 141, 184, 185, 192, PBS (saline) was administered iv. as a control. Inhibition of eosinophil infiltration, which was suppressed by anti-alpha-4 Mab (PS/2, 50%), was used as a readout of VLA-4 antagonist activity of the compounds tested. […]

[2] = target: T1, α4β1 integrin (Jurkat T-cell adhesion to IL-1 stimulated endothelial cell monolayers) (Homo sapiens, UniProt P05556+P13612); assay: Jurkat-endothelial cell adhesion assay (Jurkat EC); format: cell-based; conditions: Jurkat cells on IL-1 stimulated human umbilical vein endothelial cells; read-out: JK/EC (Jurkat EC Assay IC50 value range)
T1 construct: a T-cell line, Jurkat, known to express the α4β1 integrin; host or cells: Jurkat T-cell line
How it was run: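 BCECF-AM-labelled Jurkat cells were mixed with compound, generally 100, 20, 5 and 1.25 μM, and added to HUVEC monolayers (passage ≤6) pre-stimulated 4 hr at 37° C with 0.1 ng/ml IL-1. After 5 min on ice and 20 min at 37° C, washed wells were read by fluorescence as % adhesion relative to no compound.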

[3] = target: T2, α4β1 integrin (Jurkat cell adhesion to immobilized CS-1 derived peptide CLHPGEILDVPST) (Homo sapiens, UniProt P05556+P13612); assay: Jurkat-CS-1 assay; format: cell-based; conditions: Jurkat cells on CS-1 peptide coated plates; read-out: JK/CS-1 (Jurkat CS-1 Assay IC50 value range)
T2 construct: 100 μl of Jurkat cells (2.5×10^6 cells/ml) in DMEM plus BSA; host or cells: Jurkat T-cell line
How it was run: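 CS-1 peptide was SPDP-crosslinked onto HSA-coated plates and blocked with BSA. Jurkat cells (2.5×10^6 cells/ml) in DMEM/BSA were mixed with compound, generally at 100, 20, 5 and 1.25 μM, and allowed to adhere for 1 hr at 37° C. Bound cells were fixed, stained with toluidine blue and quantified by OD590.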

T1 sequence (P13612 34-1032): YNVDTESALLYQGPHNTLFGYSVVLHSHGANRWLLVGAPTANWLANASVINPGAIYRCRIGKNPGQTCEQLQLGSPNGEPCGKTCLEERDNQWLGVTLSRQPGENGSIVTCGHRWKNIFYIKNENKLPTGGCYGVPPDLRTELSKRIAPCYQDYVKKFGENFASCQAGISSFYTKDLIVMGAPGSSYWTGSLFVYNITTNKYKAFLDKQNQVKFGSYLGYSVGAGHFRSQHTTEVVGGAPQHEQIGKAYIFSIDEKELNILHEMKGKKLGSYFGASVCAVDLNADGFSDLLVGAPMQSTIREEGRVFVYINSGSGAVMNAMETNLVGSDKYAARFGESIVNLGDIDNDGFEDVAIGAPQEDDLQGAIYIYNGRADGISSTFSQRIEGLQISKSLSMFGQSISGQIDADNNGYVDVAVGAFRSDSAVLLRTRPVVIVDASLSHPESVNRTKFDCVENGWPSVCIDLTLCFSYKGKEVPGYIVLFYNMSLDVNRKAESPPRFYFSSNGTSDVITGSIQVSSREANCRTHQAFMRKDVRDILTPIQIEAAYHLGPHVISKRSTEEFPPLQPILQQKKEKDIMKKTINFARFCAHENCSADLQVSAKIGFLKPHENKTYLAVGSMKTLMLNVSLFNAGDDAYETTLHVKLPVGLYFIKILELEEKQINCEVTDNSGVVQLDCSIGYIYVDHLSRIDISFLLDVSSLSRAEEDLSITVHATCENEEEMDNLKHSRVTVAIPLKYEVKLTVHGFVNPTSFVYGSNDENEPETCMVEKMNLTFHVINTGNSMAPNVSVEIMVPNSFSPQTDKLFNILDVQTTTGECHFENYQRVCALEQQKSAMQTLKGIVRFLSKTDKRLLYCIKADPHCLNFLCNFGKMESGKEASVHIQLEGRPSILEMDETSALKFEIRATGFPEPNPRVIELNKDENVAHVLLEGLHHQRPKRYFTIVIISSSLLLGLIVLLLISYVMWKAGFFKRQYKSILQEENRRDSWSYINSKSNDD
T1 sequence (P05556 21-798): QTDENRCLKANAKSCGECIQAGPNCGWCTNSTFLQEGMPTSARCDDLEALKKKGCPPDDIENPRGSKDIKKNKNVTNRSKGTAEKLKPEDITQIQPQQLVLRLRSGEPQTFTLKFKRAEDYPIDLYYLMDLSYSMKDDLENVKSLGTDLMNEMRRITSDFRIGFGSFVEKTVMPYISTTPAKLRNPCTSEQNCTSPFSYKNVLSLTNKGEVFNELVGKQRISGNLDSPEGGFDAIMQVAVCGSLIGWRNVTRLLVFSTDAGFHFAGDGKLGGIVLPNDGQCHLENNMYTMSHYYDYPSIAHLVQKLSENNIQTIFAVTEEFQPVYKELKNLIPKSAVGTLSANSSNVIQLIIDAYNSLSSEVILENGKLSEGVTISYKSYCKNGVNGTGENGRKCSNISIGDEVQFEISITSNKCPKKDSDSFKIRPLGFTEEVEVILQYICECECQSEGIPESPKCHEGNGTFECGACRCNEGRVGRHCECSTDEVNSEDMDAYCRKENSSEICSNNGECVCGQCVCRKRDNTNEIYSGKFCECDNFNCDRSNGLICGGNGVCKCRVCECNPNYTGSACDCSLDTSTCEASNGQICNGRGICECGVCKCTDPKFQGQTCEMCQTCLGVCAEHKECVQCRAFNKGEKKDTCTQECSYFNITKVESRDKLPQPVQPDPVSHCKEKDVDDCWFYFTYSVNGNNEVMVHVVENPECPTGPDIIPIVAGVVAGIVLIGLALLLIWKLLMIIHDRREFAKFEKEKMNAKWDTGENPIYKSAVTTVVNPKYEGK
T2 sequence (P13612 34-1032): as the sequence (P13612 34-1032) above
T2 sequence (P05556 21-798): as the sequence (P05556 21-798) above

[2R-[1(S*),2α,4β(S*)]]-4-[[[1-Carboxy-2-[4-[(2,6-dichlorobenzoyl)amino]phenyl]ethyl]-amino]carbonyl]-1-(1-phenylethyl)-2-azetidincearboxylic Acid, Dilithium Salt [Example 131]
% Inhibition of Eosinophil infiltration (Eos) [1]: C (C<19) | IC50 [2]: 250 to 1000 nM | IC50 [3]: 50 to 750 nM
